# According to US8513248B2, “5,6,7,8-tetrahydroimidazo[1,2-A]pyrazine derivatives as P2X7 modulators” (Glaxo Group Limited, priority 2009, dated 2013):
# Structures can show the parent of a compound that is named as a salt.
# How the values were obtained:
# [1] = molecular target: T1, human recombinant P2X7 receptors (Homo sapiens, UniProt Q99572); experiment: Ethidium Accumulation Assay 1; format: cell-based; conditions: HEK293 cells stably expressing human recombinant P2X7; 1 mM ATP; ethidium 100 μM; read-out: Assay 1 (antagonist pIC50 for blocking ATP responses, ethidium accumulation) (converted)
# T1 construct: expressed in transfected cells
# T1 sequence (Q99572 1-595): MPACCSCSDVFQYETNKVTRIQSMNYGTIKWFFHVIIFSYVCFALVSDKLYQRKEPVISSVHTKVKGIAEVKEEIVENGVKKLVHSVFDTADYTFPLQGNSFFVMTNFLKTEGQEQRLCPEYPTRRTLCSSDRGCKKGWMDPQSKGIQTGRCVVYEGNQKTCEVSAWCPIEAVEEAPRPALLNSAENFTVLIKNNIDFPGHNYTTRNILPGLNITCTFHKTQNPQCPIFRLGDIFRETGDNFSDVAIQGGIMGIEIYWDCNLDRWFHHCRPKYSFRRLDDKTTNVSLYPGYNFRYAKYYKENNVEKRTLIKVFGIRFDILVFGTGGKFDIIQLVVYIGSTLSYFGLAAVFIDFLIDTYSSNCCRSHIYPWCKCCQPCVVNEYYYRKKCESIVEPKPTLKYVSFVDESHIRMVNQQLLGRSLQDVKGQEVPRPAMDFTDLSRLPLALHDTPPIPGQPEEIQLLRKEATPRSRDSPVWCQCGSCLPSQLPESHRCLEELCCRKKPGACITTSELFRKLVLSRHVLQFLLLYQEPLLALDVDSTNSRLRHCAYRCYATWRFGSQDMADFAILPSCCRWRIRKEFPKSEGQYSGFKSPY
# Description: Studies were performed using NaCl assay buffer of the following composition: 140 mM NaCl, 10 mM HEPES [4-(2-hydroxyethyl)-1-piperazine-1-ethanesulfonic acid], 5 mM N-methyl-D-glucamine, 5.6 mM KCl, 10 mM D-glucose, 0.5 mM CaCl2 (pH 7.4).
# Human Embryonic Kidney (HEK) 293 cells, stably expressing human recombinant P2X7 receptors, were grown in poly-D-lysine pretreated 96 well plates for 18-24 hours. […] The cells were washed twice with 350 μl of the assay buffer, before addition of 50 μl of the assay buffer containing the putative P2X7 receptor antagonist compound. (A small amount of dimethyl sulfoxide, for initially dissolving the compound, is optionally used and present in this […] test compound sample.) The cells were then incubated at room temperature (19-21° C.) for 30 min before addition of ATP and ethidium (100 μM final assay concentration). The ATP concentration was chosen to be close to the EC80 for the receptor type and was 1 mM for studies on the human P2X7 receptor. Incubations were continued for 8 or 16 min and were terminated by addition of 25 μl of 1.3M sucrose containing 4 mM of the P2X7 receptor antagonist Reactive Black 5 (Aldrich). […] Antagonist pIC50 values for blocking ATP responses were determined using iterative curve fitting techniques.
# [2] = molecular target: T1, human recombinant P2X7 receptors; experiment: Ethidium Accumulation Assay 2; format: cell-based; conditions: HEK293 cells stably expressing human recombinant P2X7; ATP solution with ethidium bromide; 16 min incubation; read-out: Assay 2 (antagonist pIC50 for blocking ATP responses, ethidium accumulation) (converted)
# Description: Human Embryonic Kidney (HEK) 293 cells, stably expressing human recombinant P2X7 receptors, were grown in poly-D-lysine pretreated 96 well plates for 24 hours at 37° C.
# The cells were washed with assay buffer (100 μL), before addition of 25 μL of assay buffer and then 25 ul of assay buffer containing the putative P2X7 receptor antagonist compound. The cells were then incubated at room temperature (19-21° C.) for 30 min before addition of ATP solution (50 μM). […] Antagonist pIC50 values for blocking ATP responses were determined using iterative curve fitting techniques.
Structure (SMILES),IC50 [1],IC50 [2]
"O=C(c1cccc(C(F)(F)F)c1Cl)N1CCn2ccnc2C1 [Example 1, 7-{[2-Chloro-3-(trifluoromethyl)phenyl]carbonyl}-5,6,7,8-tetrahydroimidazo[1,2-a]pyrazine]",< 100 nM,< 100 nM
"O=C(c1cccc(C(F)(F)F)c1Cl)N1CCn2cc(C(F)(F)F)nc2C1 [Example 2, 7-{[2-Chloro-3-(trifluoromethyl)phenyl]carbonyl}-2-(trifluoromethyl)-5,6,7,8-tetrahydroimidazo[1,2-a]pyrazine]",< 100 nM,< 100 nM
"Cc1cnc2n1CCN(C(=O)c1cccc(C(F)(F)F)c1Cl)C2 [Example 27, 7-{[2-Chloro-3-(trifluoromethyl)phenyl]carbonyl}-3-methyl-5,6,7,8-tetrahydroimidazo[1,2-a]pyrazine hydrochloride]",< 100 nM,< 100 nM
"O=C(c1cccc(C(F)(F)F)c1Cl)N1CCn2c(nc(Br)c2-c2ccc(F)cc2)C1 [Example 34, 2-Bromo-7-{[2-chloro-3-(trifluoromethyl)phenyl]carbonyl}-3-(4-fluorophenyl)-5,6,7,8-tetrahydroimidazo[1,2-a]pyrazine]",< 100 nM,–
"O=C(c1cccc(C(F)(F)F)c1Cl)N1CCn2c(nc(C(F)(F)F)c2-c2ccc(F)cc2)C1 [Example 35, 7-{[2-chloro-3-(trifluoromethyl)phenyl]carbonyl}-3-(4-fluorophenyl)-2-(trifluoromethyl)-5,6,7,8-tetrahydroimidazo[1,2-a]pyrazine]",< 100 nM,–
"O=C(c1ccc(Cl)cc1Cl)N1CCn2c(nc(C(F)(F)F)c2-c2ccc(F)cc2)C1 [Example 36, 7-[(2,4-dichlorophenyl)carbonyl]-3-(4-fluorophenyl)-2-(trifluoromethyl)-5,6,7,8-tetrahydroimidazo[1,2-a]pyrazine]",< 501 nM,–
"O=C(c1ccc(F)cc1Cl)N1CCn2c(-c3cnccn3)cnc2C1 [Example 37, 7-[(2-chloro-4-fluorophenyl)carbonyl]-3-(2-pyrazinyl)-5,6,7,8-tetrahydroimidazo[1,2-a]pyrazine]",< 10 nM,–
"O=C(c1cccc(C(F)(F)F)c1Cl)N1CCn2c(-c3cnccn3)cnc2C1 [Example 38, 7-{[2-chloro-3-(trifluoromethyl)phenyl]carbonyl}-3-(2-pyrazinyl)-5,6,7,8-tetrahydroimidazo[1,2-a]pyrazine]",< 10 nM,–

# Second part, the molecule after the results:
IC50 [1],IC50 [2],Structure (SMILES)
< 10 nM,–,"O=C(c1cccc(C(F)(F)F)c1Cl)N1CCn2c(-c3nccs3)cnc2C1 [Example 39, 7-{[2-chloro-3-(trifluoromethyl)phenyl]carbonyl}-3-(1,3-thiazol-2-yl)-5,6,7,8-tetrahydroimidazo[1,2-a]pyrazine]"
< 10 nM,–,"O=C(c1cccc(C(F)(F)F)c1Cl)N1CCn2c(-c3ncccn3)cnc2C1 [Example 41, 7-{[2-chloro-3-(trifluoromethyl)phenyl]carbonyl}-3-(2-pyrimidinyl)-5,6,7,8-tetrahydroimidazo[1,2-a]pyrazine]"
< 10 nM,–,"O=C(c1cccc(C(F)(F)F)c1Cl)N1CCn2c(-c3cscn3)cnc2C1 [Example 42, 7-{[2-chloro-3-(trifluoromethyl)phenyl]carbonyl}-3-(1,3-thiazol-4-yl)-5,6,7,8-tetrahydroimidazo[1,2-a]pyrazine]"
< 100 nM,–,"O=C(c1cccc(C(F)(F)F)c1Cl)N1CCn2c(Cl)cnc2C1 [Example 43, 3-chloro-7-{[2-chloro-3-(trifluoromethyl)phenyl]carbonyl}-5,6,7,8-tetrahydroimidazo[1,2-a]pyrazine]"
< 501 nM,–,"O=C(c1ccc(Cl)cc1Cl)N1CCn2c(Cl)cnc2C1 [Example 44, 3-chloro-7-[(2,4-dichlorophenyl)carbonyl]-5,6,7,8-tetrahydroimidazo[1,2-a]pyrazine]"
< 10 nM,–,"O=C(c1cccc(C(F)(F)F)c1Cl)N1CCn2c(nc(Cl)c2Cl)C1 [Example 45, 2,3-dichloro-7-{[2-chloro-3-(trifluoromethyl)phenyl]carbonyl}-5,6,7,8-tetrahydroimidazo[1,2-a]pyrazine]"
